Test results reported in patent US10654866B2, “Selective estrogen receptor degraders” (Eli Lilly and Company, priority 2018, dated 2020).

Tests used:
[1] = system: ZR-75-1 (Breast Cancer Xenograft); assay: In vivo tumor growth inhibition, ZR-75-1 xenograft; set-up: species or system mice; details: 28 days
Description: The purpose of the following xenograft tumor inhibition assay is to measure reduction in tumor volume in response to test compound administration.

[2] = molecular target: ERα (Homo sapiens (Human), UniProt P03372); assay: PRα induction assay in MCF7 cells; type: cell-based; details: MCF7 breast cancer cells
Description: The purpose of the following PRα induction assay is to determine whether a test compound has agonistic activity against ERα receptor (an agonist would be expected to activate the receptor).
Culture MCF7 (purchased from ATCC HTB-22) in DMEM media supplemented with 10% FBS, 0.01 mg/mL human insulin 1 and 1% penicillin/streptomycin antibiotics and plate the cells (prior to becoming 70% confluent) in 384-well flat-bottom plates at a density of 4,000 cells per well in 20 μL volume in DMEM phenol red free media containing 10% FBS (charcoal stripped). Incubate the cells overnight in a cell culture incubator (5% CO2, 95% relative humidity at 37° C.) and allow the cells to attach to the plate. The following day, dose the cells with test compound. Use an Echo 555 acoustic dispenser to prepare compound serial dilutions (1:3) in a range from 6 μM to 0.0003 μM. Dose the cells with the addition of the test compound (5 μL) from the serial dilution plate to the cell plate producing a final DMSO concentration of 0.2% with a final concentration of the test compound dose range between 2 and 0.0001 μM. For the maximum point use media containing 0.2% of DMSO and for the minimum point, use fulvestrant diluted at 2 μM final concentrations in the growth media containing 0.2% DMSO. After dosing with the test compound, incubate the cell plates at 37° C. and 5% CO2 for 24 hours. Fix the cells by adding 14% para-formaldehyde (10 μL) for 30 minutes at room temperature. Wash cells once with PBS (20 μL) and incubate with PBS (20 μL) containing 0.5% (v/v) TWEEN® 20 for 1 hour. Wash cells twice with PBS (20 μL) containing 0.05% TWEEN® 20 and block with 3% BSA in PBS containing 0.05% TWEEN® 20 and 0.1% TRITON™ X-100 (20 μL/well) for 1 hour at room temperature. […]
The following day, wash cells with PBS 0.05% TWEEN® 20 (2×20 μL) and incubate with secondary antibody (20 μL/well) (1:1000 dilution, Goat anti-rabbit IgM ALEXA FLUOR™ 488) in PBS 1% BSA for 105 minutes at room temperature. […] Scan plates with ACUMEN EXPLORER™ [Laser-scanning fluorescence microplate cytometer manufactured by TTP LABTECH LTD] to measure PRα. […]

Chain of ERα (P03372 whole entry): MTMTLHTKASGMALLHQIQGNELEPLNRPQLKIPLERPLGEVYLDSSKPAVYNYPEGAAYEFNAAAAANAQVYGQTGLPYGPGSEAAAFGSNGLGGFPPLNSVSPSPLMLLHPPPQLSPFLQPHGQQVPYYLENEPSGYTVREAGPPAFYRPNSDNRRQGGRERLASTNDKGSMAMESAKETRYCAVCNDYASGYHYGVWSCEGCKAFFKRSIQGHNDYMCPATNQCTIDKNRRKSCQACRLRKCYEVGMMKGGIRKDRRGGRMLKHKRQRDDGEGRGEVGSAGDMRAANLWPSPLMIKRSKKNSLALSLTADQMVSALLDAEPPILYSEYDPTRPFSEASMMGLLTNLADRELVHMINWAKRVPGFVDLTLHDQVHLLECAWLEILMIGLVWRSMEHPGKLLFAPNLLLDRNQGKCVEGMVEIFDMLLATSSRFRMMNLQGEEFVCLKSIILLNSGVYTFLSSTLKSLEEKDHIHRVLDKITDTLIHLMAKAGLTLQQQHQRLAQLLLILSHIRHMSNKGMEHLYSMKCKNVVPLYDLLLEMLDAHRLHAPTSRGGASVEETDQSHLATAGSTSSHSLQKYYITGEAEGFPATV

## Oc1ccc2c3c(cnc2c1)-c1ccc(C(F)(F)F)cc1OC3c1ccc(OCCN2CC(CF)C2)cc1 (single isomer, unassigned) [Example 1B, 5-(4-{2-[3-(Fluoromethyl)azetidin-1-yl]ethoxy}phenyl)-8-(trifluoromethyl)-5H-[1]benzopyrano[4,3-c]quinolin-2-ol]
[1]; 3 mg/kg oral gavage QD
  Delta T/C % or Regression %: 4%
[1]; 10 mg/kg oral gavage QD
  Delta T/C % or Regression %: 0%
[1]; 30 mg/kg oral gavage QD
  Delta T/C % or Regression %: 19%
[2]
  agonistic activity: no significant agonistic activity
